# Tests used:
# murine P388 leukemia = experiment: in vivo antitumor activity against murine P388 leukemia, ip qd 1-4; set-up: species or system mouse (BDF1 male mice); conditions: 10% Emulphor EL-620, 10% ethanol, 80% saline
# Procedure: (§1) The toxicity and therapeutic effectiveness of the new compounds and active agents of the present invention are shown by in vitro assays and by in vivo evaluations in mice. The in vitro assays measure the growth inhibiting activity of the materials against the CCRF-CEM cell line in culture. The cell line was derived from the peripheral blood of a child with lymphoblastic leukemia as described by Foley et al., Cancer, Volume 18, page 522 et seq. (1965), and the assays were carried out by the procedure of Foley and Lazarus, Biochem. Pharmacol., Volume 16, pages 659 et seq. (1967), the results being reported in terms of the dose in micromoles per liter required to inhibit growth of the cultures by 50% relative to control cultures to which no drug had been added (ID50). The in vivo evaluations were made by preparing a 0.2 to 0.7% by weight solution of the active agent in a formulation consisting of 10% by volume of each polyethoxylated castor oil and ethanol in saline and injecting the dosage intraperitoneally. The evaluations were made of the antitumor activity against the murine P388 and murine L1210 leukemias in BDF1 male mice according to standard National Cancer Institute protocols as set forth by Geran et al., Cancer Chemotherap. Rep., Part 3, Volume 3, pages 1 et seq. (1972) , except that a qd 1-4 schedule was used in place of qd 1-9 in order to conserve materials.
# (§2) Optimal dosage was determined by testing doses which were at several multiples of 10 milligrams/kilogram of body weight. Some effectiveness can be observed at dosages ranging from 30 to 70 milligrams/kilogram of body weight, depending upon the particular compound employed.
# The following table summarizes the in vivo antitumor activity of the same compounds as those in Table I, evaluated against murine P388 leukemia as described above. All compounds were administered intraperitoneally, adriamycin in clinical formulation (1 part adriamycin plus 5 parts lactose, in 0.9% saline), the other compounds in 10% Emulphor EL-620, 10% ethanol, 80% isotonic saline.
# [1] = cited from earlier work
# murine L1210 leukemia = experiment: in vivo antitumor activity against L1210 leukemia, ip days 1-4; set-up: species or system mouse (BDF1 male mice); conditions: 10% Emulphor EL-620, 10% ethanol, 80% isotonic saline
# Procedure: as §1, §2
# All compounds were administered intraperitoneally; in tests (1) and (2), the compounds were in 10% Emulphor EL-620, 10% ethanol, and 80% isotonic saline. In test (3) the compound was in aqueous buffer containing monobasic potassium phosphate and sodium hydroxide (0.05 M), pH 7.40: […]
# [2] = cited from earlier work; remark: listed apart in the source
# [3] = pH 7.4
# CCRF-CEM cells = experiment: growth inhibition of CCRF-CEM cell line in culture; assay type: cell-based; conditions: Homo sapiens; CCRF-CEM cells, in vitro; read-out: ID50 (dose required to inhibit growth of the cultures by 50% relative to control)
# From the text: The in vitro assays measure the growth inhibiting activity of the materials against the CCRF-CEM cell line in culture. […] The in vivo evaluations were made by preparing a 0.2 to 0.7% by weight solution of the active agent in a formulation consisting of 10% by volume of each polyethoxylated castor oil and ethanol in saline and injecting the dosage intraperitoneally. The evaluations were made of the antitumor activity against the murine P388 and murine L1210 leukemias in BDF1 male mice according to standard National Cancer Institute protocols as set forth by Geran et al., Cancer Chemotherap. Rep., Part 3, Volume 3, pages 1 et seq.
# [4] = animals and human clinical tests
compound,measurement,setting,value
CCCCC(=O)OCC(=O)C1(O)Cc2c(O)c3c(c(O)c2C(OC2CC(NC(=O)C(F)(F)F)C(O)C(C)O2)C1)C(=O)c1c(OC)cccc1C3=O (stereo not shown) [N-Trifluoroacetyladriamycin-14-valerate],% ILS (percent increase in life span relative to untreated controls),murine P388 leukemia; each dose 20.0 mg/kg ip,281%
same,No. alive on d 30,murine P388 leukemia; each dose 20.0 mg/kg ip,5/7
same,No. alive on d 60,murine P388 leukemia; each dose 20.0 mg/kg ip,3/7
same,"Survival, Median day of death (range)",murine P388 leukemia; each dose 20.0 mg/kg ip,42.0 (21-42) day
same,No. alive on d 30,murine P388 leukemia; each dose 30.0 mg/kg ip,4/7
same,No. alive on d 60,murine P388 leukemia; each dose 30.0 mg/kg ip,4/7
same,"Survival, day of death (range only, no median)",murine P388 leukemia; each dose 30.0 mg/kg ip,21 to 26 days
same,No. alive on d 30,murine P388 leukemia; each dose 40.0 mg/kg ip,6/7
same,No. alive on d 60,murine P388 leukemia; each dose 40.0 mg/kg ip,6/7
same,"Survival, day of death (range only, no median)",murine P388 leukemia; each dose 40.0 mg/kg ip,"30,71 day"
same,% ILS (percent increase in life span relative to untreated controls),murine P388 leukemia; each dose 50.0 mg/kg ip,763%
same,No. alive on d 30,murine P388 leukemia; each dose 50.0 mg/kg ip,5/7
same,No. alive on d 60,murine P388 leukemia; each dose 50.0 mg/kg ip,5/7
same,"Survival, Median day of death (range)",murine P388 leukemia; each dose 50.0 mg/kg ip,95.0 (24-95) day
same,% ILS (percent increase in life span relative to untreated controls),murine P388 leukemia; each dose 60.0 mg/kg ip,718%
same,No. alive on d 30,murine P388 leukemia; each dose 60.0 mg/kg ip,5/7
same,No. alive on d 60,murine P388 leukemia; each dose 60.0 mg/kg ip,5/7
same,"Survival, Median day of death (range)",murine P388 leukemia; each dose 60.0 mg/kg ip,90.0 (9-90) day
same,cardiotoxicity relative to parent drug,[1]; [4],significantly less cardiotoxic than the parent drug
same,toxicity in general relative to parent drug,[1]; [4],less toxic in general
same,therapeutic effect relative to adriamycin and daunomycin,"[1]; human, in vivo",therapeutically superior to adriamycin and to daunomycin
same,"% ILS (percent median increase in life span relative to untreated controls, calculated as of day 50)",murine L1210 leukemia; 50.0 mg/kg/d × 4 ip,> 456%
same,No. alive on d 50,murine L1210 leukemia; 50.0 mg/kg/d × 4 ip,5/7
same,"% ILS (percent median increase in life span relative to untreated controls, calculated as of day 50)",murine L1210 leukemia; 60.0 mg/kg/d × 4 ip,> 456%
same,No. alive on d 50,murine L1210 leukemia; 60.0 mg/kg/d × 4 ip,6/7
same,water solubility,[2],essentially water-insoluble
same,solubility in water (in words),[3],a few micrograms
same,IC50,CCRF-CEM cells,240 nM

# Source: patent publication US4299822A, “N-Trifluoroacetyladriamycin-14-O-hemiglutarate and -hemiadipate and therapeutic compositions containing same” (Sidney Farber Cancer Institute, Inc., priority 1980, dated 1981)
